# US10905118B2, “Triscationic amphiphile compounds, compositions, and methods for making same” (James Madison Innovations, Inc., priority 2014, dated 2021)
# How the values were obtained:
# Bacillus cereus = assay: Minimum inhibitory concentration, B. cereus; format: cell-based; details: Mueller-Hinton Broth, 37° C., 72 h
# Experimental: (§1) The MIC values of all compounds from both double-tailed series were determined for four Gram-positive (Staphylococcus aureus, Enterococcus faecalis, Streptococcus agalactiae, and Bacillus cereus) and two Gram-negative (Escherichia coli and Pseudomonas aeruginosa) strains, which are shown in Table 3.
# (§2) The Gram-positive bacterial strains used tested were Staphylococcus aureus subsp. aureus ATCC® 29213™, Enterococcus faecalis ATCC® 29212™, Bacillus cereus, and Streptococcus agalactiae J48.^58 The Gram-negative bacterial strains used were Escherichia coli ATCC® 25922™ and Pseudomonas aeruginosa ATCC® 27853™. All strains were grown in 1× Mueller-Hinton Broth at 37° C. for 12-24 h. For the MIC and combination studies, bacterial suspensions were prepared by diluting overnight cultures to 5×10^6 CFU/mL in 2× Mueller-Hinton Broth, so that when amphiphile solutions are added the final broth strength is 1×.
# (§3) The methods used to determine the MIC and MBC were performed as previously described and followed the standards set forth by the Clinical and Laboratory Standards Institute (See Ladow, J. E.; Warnock, D. C.; Hamill, K. M.; Simmons, K. L.; Davis, R. W.; Schwantes, C. R.; Flaherty, D. C.; Willcox, J. A. L.; Wilson-Henjum, K.; Caran, K. L.; Minbiole, K. P. C.; Seifert, K. Bicephalic amphiphile architecture affects antibacterial activity. Eur. J. Med. Chem. 2011, 46, 4219-4226 and P. A. Wayne Methods for dilution antimicrobial tests for bacteria that grow aerobically. 2009.). Briefly, compounds were serially diluted and 100 μL of each dilution were added to the wells of a 96-well flat-bottomed microtiter plate in triplicate. After adding 100 μL of the bacterial cell suspension, the plates were incubated at 37° C. for 72 h. […] The MIC was considered to be bactericidal if the MBC was the same concentration or one concentration higher in the dilution series as the MIC, per Motyl, M.; Dorso, K.; Barrett, J.; Giacobbe, R. Basic microbiological techniques used in antibacterial drug discovery. Curr. Protoc. Pharmacol. 2006, Chapter 13.
# Streptococcus agalactiae = assay: Minimum inhibitory concentration, S. agalactiae; format: cell-based, Streptococcus agalactiae J48; details: Mueller-Hinton Broth, 37° C., 72 h
# Experimental: as §1, §2, §3
# [1] = Isothermal titration calorimetry: critical aggregation concentration and thermodynamics of aggregation; format: physicochemical; details: for −TΔSmic: Gibbs-Helmholtz equation; for −TΔSmic / ΔGmic: double-tailed series; for ΔGmic: approximated with RT ln(CAC/55.5); for CMC / ΔHmic: pure water, double-tailed M-P and M-1 series; for −TΔSagg term (sign, in words): Table 1
# Experimental: Isothermal titration calorimetry (ITC) was used to determine the critical aggregation concentration (CAC) and the thermodynamic parameters at 37° C. associated with aggregate formation for each double-tailed amphiphile for the M-P and M-1 series, as shown in Table 1.
# A Nano ITC was used to measure the heat change associated with the deaggregation of amphiphiles via power compensation. A concentrated aqueous solution of amphiphile (>>CAC) was titrated into a thermally controlled sample cell, initially containing pure water, in a series of discrete injections. Isothermal titration calorimetry was used to determine the critical aggregation concentration (CAC) and ΔHagg. Shown in FIG. 5 is the heat rate associated with each injection versus time for 9 (M-1,14,14). Shown in FIG. 6 is the integration of the heat per injection normalized by the number of moles of each injection versus the increasing concentration of amphiphile in the well. In FIG. 6, inset, CAC is determined by calculating the first derivative the heat curve.
# During initial injections (Range I), measured heat changes are due to both the dilution of aggregates and deaggregation. This can be observed in the first 10 injections, where aggregates absorbed heat and disassociated into dissolved monomers. The heat change produced by each injection was approximately constant in this range. In Range II, injected aggregates don't fully dissociate, reducing the total absorbed heat for each subsequent injection. At concentrations well above the CAC (Range III), absorbed heat is attributed only to the dilution of aggregates and is approximately constant. […] CAC and thermodynamic data were not determined for the amphiphiles with the shortest tails [1 (M-P,8,8) and 6 (M-1,8,8)] because the heat evolved during injection was […] the threshold of the instrument.
# The difference between the average heat of injections in Range I, representing the total heat due to the dilution of aggregates and deaggregation, and the average heat of injections in Range III, representing the heat due solely to the dilution of aggregates, gives the heat of deaggregation, ΔHdeagg. The ΔHdeagg for compound 9 (M-1,14,14) is 37 kJ/mol, corresponding to a heat of aggregate formation, ΔHagg, of −37 kJ/mol (ΔHagg=−ΔHdeagg).
# The ΔGagg can be approximated for the aggregation of nonionic amphiphiles by the equation: ΔGagg=RT ln(CAC/55.5) (3)
# where m is the concentration of counterions that associate with a aggregate and n is the number of monomers that associate to form an aggregate. […] BBA-Biomembranes. 2000, 1508, 69-85.)
# The entropy of aggregation (ΔSagg) is dictated by a combination of entropic factors that favor or disfavor aggregate formation and can be approximated using the Gibbs-Helmholtz equation: ΔGagg=ΔHagg−TΔSagg (5)
# CAC and ΔHagg were determined using a Nano-ITC (TA-Instruments). Prior to each experiment the sample cell was washed with dH2O (300 mL), ethanol (100 mL), dH2O (300 mL) and nanopure water (200 mL). Next, 950 μL of nanopure water was added to the sample cell. A concentrated aqueous solution (>>CAC) of amphiphile was prepared and equilibrated at 37° C. A 250 μL syringe was filled with the aqueous solution, and loaded into the Nano ITC. Multiple single injections in aliquots of 5 μL were injected into the sample cell with time intervals varying from 300 s to 1400 s. Samples were continuously stirred (300 rpm) throughout the titration. The Nano-Analyze program (TA-Instruments) was used to analyze the data. CAC and ΔHagg values reported are the average of two or more repeat experiments for each amphiphile.
# Enterococcus faecalis = assay: Minimum inhibitory concentration, E. faecalis; format: cell-based, Enterococcus faecalis ATCC 29212; details: Mueller-Hinton Broth, 37° C., 72 h
# Experimental: as §1, §2, §3
# Pseudomonas aeruginosa = assay: Minimum inhibitory concentration, P. aeruginosa; format: cell-based, Pseudomonas aeruginosa ATCC 27853; details: Mueller-Hinton Broth, 37° C., 72 h
# Experimental: as §1, §2, §3
# Escherichia coli = assay: Minimum inhibitory concentration, E. coli; format: cell-based, Escherichia coli ATCC 25922; details: Mueller-Hinton Broth, 37° C., 72 h
# Experimental: as §1, §2, §3
# Staphylococcus aureus = assay: Minimum inhibitory concentration, S. aureus; format: cell-based, Staphylococcus aureus subsp. aureus ATCC 29213; details: Mueller-Hinton Broth, 37° C., 72 h
# Experimental: as §1, §2, §3
MIC B. cereus (G+) (Bacillus cereus),MIC S. agalactiae (G+) (Streptococcus agalactiae),−TΔSmic ([1]; 37° C.),ΔGmic ([1]; 37° C.),"CMC ([1]; ITC, 37° C.)","ΔHmic ([1]; ITC, 37° C.)","−TΔSagg term (sign, in words) [1]",MIC E. faecalis (G+) (Enterococcus faecalis),MIC P. aeruginosa (G−) (Pseudomonas aeruginosa),MIC E. coli (G−) (Escherichia coli),MIC S. aureus (G+) (Staphylococcus aureus),"ΔHagg ([1]; ITC, 37° C.)","ΔHdeagg (heat of deaggregation) ([1]; ITC, 37° C., Range I minus Range III)",SMILES
8 µM,8 µM,2.39 kcal/mol,-5.02 kcal/mol,14 mM,-2.63 kcal/mol,negative,8 µM,63 µM,16 µM,2 µM,–,–,CCCCCCCCCC[N+](C)(C)Cc1cc(C[n+]2ccccc2)cc(C[N+](C)(C)CCCCCCCCCC)c1.[Br-].[Br-].[Br-] [Compound 2]
16 µM,8 µM,-5.26 kcal/mol,-7.89 kcal/mol,0.16 mM,-13.1 kcal/mol,positive,32 µM,>250 µM,63 µM,16 µM,–,–,CCCCCCCCCCCCCCCC[N+](C)(C)Cc1cc(C[N+](C)(C)C)cc(C[N+](C)(C)CCCCCCCCCCCCCCCC)c1.[Br-].[Br-].[Br-] [Compound 10]
2 µM,1 µM,0.741 kcal/mol,-6.21 kcal/mol,2.4 mM,-5.5 kcal/mol,negative,2 µM,8 µM,4 µM,2 µM,–,–,CCCCCCCCCCCC[N+](C)(C)Cc1cc(C[n+]2ccccc2)cc(C[N+](C)(C)CCCCCCCCCCCC)c1.[Br-].[Br-].[Br-] [Compound 3]
4 µM,2 to 4 µM,-1.91 kcal/mol,-6.93 kcal/mol,0.61 mM,-8.84 kcal/mol,positive,4 µM,125 µM,8 µM,4 to 8 µM,-8.84 kcal/mol,8.84 kcal/mol,CCCCCCCCCCCCCC[N+](C)(C)Cc1cc(C[N+](C)(C)C)cc(C[N+](C)(C)CCCCCCCCCCCCCC)c1.[Br-].[Br-].[Br-] [Compound 9]
2 µM,2 µM,0.0196 kcal/mol,-6.21 kcal/mol,2.5 mM,-6.21 kcal/mol,negative,2 µM,16 µM,4 to 8 µM,2 µM,–,–,CCCCCCCCCCCC[N+](C)(C)Cc1cc(C[N+](C)(C)C)cc(C[N+](C)(C)CCCCCCCCCCCC)c1.[Br-].[Br-].[Br-] [Compound 8]
8 µM,4 µM,1.58 kcal/mol,-5.26 kcal/mol,12 mM,-3.59 kcal/mol,negative,8 µM,>250 µM,125 µM,16 µM,–,–,CCCCCCCCCC[N+](C)(C)Cc1cc(C[N+](C)(C)C)cc(C[N+](C)(C)CCCCCCCCCC)c1.[Br-].[Br-].[Br-] [Compound 7]
8 µM,4 µM,-2.08 kcal/mol,-7.17 kcal/mol,0.56 mM,-9.08 kcal/mol,positive,4 µM,63 µM,16 µM,4 µM,–,–,CCCCCCCCCCCCCC[N+](C)(C)Cc1cc(C[n+]2ccccc2)cc(C[N+](C)(C)CCCCCCCCCCCCCC)c1.[Br-].[Br-].[Br-] [Compound 4]
>250 µM,>250 µM,–,–,–,–,–,>250 µM,>250 µM,>250 µM,>250 µM,–,–,CCCCCCCC[N+](C)(C)Cc1cc(C[N+](C)(C)C)cc(C[N+](C)(C)CCCCCCCC)c1.[Br-].[Br-].[Br-] [Compound 6]
>250 µM,>250 µM,–,–,–,–,–,>250 µM,>250 µM,>250 µM,>250 µM,–,–,CCCCCCCC[N+](C)(C)Cc1cc(C[n+]2ccccc2)cc(C[N+](C)(C)CCCCCCCC)c1.[Br-].[Br-].[Br-] [Compound 1]

SMILES,MIC B. cereus (G+) (Bacillus cereus),MIC S. agalactiae (G+) (Streptococcus agalactiae),−TΔSmic ([1]; 37° C.),ΔGmic ([1]; 37° C.),"CMC ([1]; ITC, 37° C.)","ΔHmic ([1]; ITC, 37° C.)","−TΔSagg term (sign, in words) [1]",MIC E. faecalis (G+) (Enterococcus faecalis),MIC P. aeruginosa (G−) (Pseudomonas aeruginosa),MIC E. coli (G−) (Escherichia coli),MIC S. aureus (G+) (Staphylococcus aureus),"ΔHagg ([1]; ITC, 37° C.)","ΔHdeagg (heat of deaggregation) ([1]; ITC, 37° C., Range I minus Range III)"
CCCCCCCCCCCC[N+](C)(C)Cc1cc(C[N+](C)(C)C)cc(C[N+](C)(C)C)c1.[Br-].[Br-].[Br-] [Compound S3],63 µM,125 µM,–,–,–,–,–,250 µM,>250 µM,>250 µM,63 µM,–,–
CCCCCCCC[N+](C)(C)Cc1cc(C[N+](C)(C)C)cc(C[N+](C)(C)C)c1.[Br-].[Br-].[Br-] [Compound S1],>250 µM,>250 µM,–,–,–,–,–,>250 µM,>250 µM,>250 µM,>250 µM,–,–
CCCCCCCCCC[N+](C)(C)Cc1cc(C[N+](C)(C)C)cc(C[N+](C)(C)C)c1.[Br-].[Br-].[Br-] [Compound S2],125 µM,125 µM,–,–,–,–,–,250 µM,>250 µM,>250 µM,>250 µM,–,–
